# pIC50: −log10 of the molar value. “And” between values parts separate entries of the source, which are not always exact repeats. Equal entries are not always repeated.
# How the values were obtained:
# human SCD1 = human SCD1 (Homo sapiens (Human), UniProt O00767); assay: Yeast growth assay, strain expressing human SCD1 as the sole desaturase (reduced growth as surrogate for SCD inhibition); type: cell-based; details: yeast with OLE1 deleted expressing human SCD1 from a plasmid; growth read as OD600 after 40 h at 30° C.; top drug concentration 33.3 μM
# How it was run: (§1)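 Yeast lacking OLE1 depend on plasmid-borne human SCD1 or SCD5 and are tested in SD-Ura medium without oleic/palmitoleic acid or Tween.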
# human SCD5 = human SCD5 (Homo sapiens (Human), UniProt Q86SK9); assay: Yeast growth assay, strain expressing human SCD5 as the sole desaturase (reduced growth as surrogate for SCD inhibition); type: cell-based; details: yeast with OLE1 deleted expressing human SCD5 from a plasmid; growth read as OD600 after 40 h at 30° C.; top drug concentration 33.3 μM
# How it was run: as §1
# Chain of human SCD1 (O00767 whole entry): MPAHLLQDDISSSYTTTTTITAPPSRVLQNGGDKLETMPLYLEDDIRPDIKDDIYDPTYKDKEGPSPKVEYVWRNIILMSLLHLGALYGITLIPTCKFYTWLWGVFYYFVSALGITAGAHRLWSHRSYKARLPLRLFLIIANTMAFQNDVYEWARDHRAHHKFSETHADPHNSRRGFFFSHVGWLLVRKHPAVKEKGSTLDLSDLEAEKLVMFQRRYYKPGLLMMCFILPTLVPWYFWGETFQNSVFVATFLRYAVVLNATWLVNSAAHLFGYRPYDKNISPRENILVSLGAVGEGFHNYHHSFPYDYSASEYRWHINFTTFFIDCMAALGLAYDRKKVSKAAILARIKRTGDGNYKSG
# Chain of human SCD5 (Q86SK9 whole entry): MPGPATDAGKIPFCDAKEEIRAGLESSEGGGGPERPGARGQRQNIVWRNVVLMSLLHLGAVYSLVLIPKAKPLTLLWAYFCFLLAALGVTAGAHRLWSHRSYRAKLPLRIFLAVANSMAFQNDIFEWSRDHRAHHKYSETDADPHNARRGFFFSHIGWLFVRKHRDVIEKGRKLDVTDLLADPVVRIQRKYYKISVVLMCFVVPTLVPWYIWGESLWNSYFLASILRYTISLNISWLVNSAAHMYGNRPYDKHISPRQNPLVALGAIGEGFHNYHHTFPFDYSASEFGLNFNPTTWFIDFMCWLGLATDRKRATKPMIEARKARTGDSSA
SMILES,pIC50 (human SCD1),pIC50 (human SCD5)
N#Cc1ccc(Cn2cc(NC(=O)c3cc(-c4ccccc4)on3)cn2)cc1 [Compound 42],< 4.35,< 4.35
O=C(c1cc(-c2ccnnc2)on1)N1CCC[C@H]1c1ccccc1 [Compound 433],4.43,< 4.35
"O=C(c1cc(-c2cccnc2)on1)N1CC(c2ccccc2)C1 [Compound 234, (3-phenylazetidin-1-yl)(5-(pyridin-3-yl)isoxazol-3-yl)methanone, trifluoroacetic acid]",4.81,5.29
"O=C(c1cc(-c2ccc(F)cn2)on1)N1CC(c2ccccc2)C1 [Compound 243, (5-(5-fluoropyridin-2-yl)isoxazol-3-yl)(3-phenylazetidin-1-yl)methanone]",5.80,5.82
CC(C)c1cc(C(=O)Nc2cnn(CC34CCC(CC3)CC4)c2)no1 [Compound 167],< 4.35,< 4.35
O=C(c1cc(-c2ccn3ncnc3c2)on1)N1CCC[C@H]1c1ccccc1 [Compound 432],4.40,< 4.35
O=C(Nc1cnn(Cc2ccccc2)c1)c1cc(-c2ccccn2)no1 [Compound 129],< 4.35,< 4.35
"Cc1ncc(-c2cc(C(=O)Nc3cnn(Cc4cccc(F)c4)c3)no2)o1 [Compound 67, N-(1-(3-fluorobenzyl)-1H-pyrazol-4-yl)-5-(2-methyloxazol-5-yl)isoxazole-3-carboxamide]",6.00,5.10
O=C(c1cc(CC2CC2)on1)N1CCCC1c1ccccc1 (stereo not drawn) [Compound 384],4.52,< 4.35
O=C(c1cc(-c2ccc3c(c2)OCO3)on1)N1CCCC1c1ccncc1 (stereo not drawn) [Compound 363],< 4.35,< 4.35
N#Cc1ccccc1-c1cc(C(=O)Nc2cnn(Cc3ccccc3)c2)no1 [Compound 135],< 4.35,< 4.35
COc1ccccc1-c1cc(C(=O)Nc2cnn(Cc3ccccc3)c2)no1 [Compound 136],< 4.35,< 4.35
Cc1nn(C)c2cc(-c3conc3CN3C(=O)OCC3c3ccccc3)ccc12 (stereo not drawn) [Compound 464],< 4.35,< 4.35
N#Cc1cccnc1C1CCCN1C(=O)c1cc(-c2ccc3c(c2)OCO3)on1 (stereo not drawn) [Compound 448],< 4.35,< 4.35
"O=C(c1cc(-c2ccc3c(c2)OCO3)on1)N1CCC1c1ccccc1 (stereo not drawn) [Compound 204, (5-(benzo[d][1,3]dioxol-5-yl)isoxazol-3-yl)(2-phenylazetidin-1-yl)methanone]",4.52 and 4.47,5.46 and 5.64
O=C(c1cc(-c2ccc(=O)[nH]c2)on1)N1CCC[C@H]1c1ccccc1 [Compound 451],4.43,< 4.35
"O=C(Nc1cnn(Cc2ccccc2)c1)c1cc(-c2ccncc2F)on1 [Compound 147, N-(1-benzyl-1H-pyrazol-4-yl)-5-(3-fluoropyridin-4-yl)isoxazole-3-carboxamide]",< 4.35,5.13
O=C(c1cc(-c2ccccn2)on1)N1CCC(c2ccccc2)CC1 [Compound 318],< 4.35,4.85
CC(C)(C)OC(=O)n1cc(NC(=O)c2cc(-c3ccccc3)on2)cn1 [Compound 35],5.49,< 4.35
O=C(Nc1cnn(Cc2ccccc2)c1)c1cc(-c2ccccc2Cl)on1 [Compound 141],< 4.35,< 4.35
O=C(c1cc(-c2ccc3c(c2)OCO3)on1)N1CCC1c1ccccc1F (stereo not drawn) [Compound 218],< 4.35,< 4.35
CCOc1ccc(-c2cc(C(=O)N3CCC[C@H]3c3ccccc3)no2)cc1F [Compound 443],< 4.35,< 4.35
Cc1nn(C)c2cc(-c3cc(C(=O)N4CCN(c5ccccc5)CC4)no3)ccc12 [Compound 278],< 4.35,< 4.35

# Next, values leading:
pIC50 (human SCD1),pIC50 (human SCD5),SMILES
< 4.35,5.05,O=C(c1cc(-c2ccccc2)on1)N1CCCC1Cc1ccccc1 (stereo not drawn) [Compound 436]
5.73,5.87,O=C(c1cc(-c2ccccc2)on1)N1CC(CCl)(CNc2ccccc2)C1 [Compound 215]
< 4.35,< 4.35,O=C(c1cc(-c2ccccc2)on1)N1CC2(C1)CN(c1ccccc1)C2 [Compound 209]
< 4.35,< 4.35,O=C(c1cc(-c2ccco2)on1)N1CC(Nc2ccccc2)C1 [Compound 210]
4.52,< 4.35,O=C(c1cc(-c2ccc3c(c2)OCO3)on1)N1CC(O)C[C@H]1c1ccccc1 (stereo partly drawn) [Compound 414]
6.01,< 4.35,N#Cc1ccc(-c2cc(C(=O)Nc3cnn(Cc4ccccc4)c3)no2)cc1 [Compound 128]
< 4.35,5.21,O=C(c1cc(-c2ccc3c(c2)OCO3)on1)N1CCCC1c1ccccc1C(F)F (stereo not drawn) [Compound 331]
4.52,< 4.35,COc1cc(C2CCCN2C(=O)c2cc(-c3ccc4c(c3)OCO4)on2)on1 (stereo not drawn) [Compound 411]
< 4.35,< 4.35,O=C(c1cc(-c2ccc3c(c2)OCO3)on1)N1CCCc2ccccc21 [Compound 261]
< 4.35,< 4.35,N#Cc1ccc(F)cc1Cn1cc(NC(=O)c2cc(-c3ccccc3)on2)cn1 [Compound 88]
< 4.35,< 4.35,O=C(c1cc(-c2ccc3c(c2)OCO3)on1)N1C[C@@H](O)C[C@H]1c1ccccc1 [Compound 421]
< 4.35,< 4.35,O=C(c1ccccc1)N1CCN(C(=O)c2cc(-c3ccc4c(c3)OCO4)on2)CC1 [Compound 281]
5.62,5.57,"O=C(Nc1cnn(Cc2cccc(F)c2)c1)c1cc(-c2ccncc2)on1 [Compound 56, N-(1-(3-fluorobenzyl)-1H-pyrazol-4-yl)-5-(pyridin-4-yl)isoxazole-3-carboxamide]"
< 4.35,< 4.35,CC(C)(C)OC(=O)n1cc(NC(=O)c2cc(-c3ccco3)on2)cn1 [Compound 12]
< 4.35,< 4.35,CS(=O)(=O)CC(c1ccccc1)n1cc(NC(=O)c2cc(-c3ccccc3)on2)cn1 (stereo not drawn) [Compound 80]
< 4.35,5.06,"O=C(c1cc(-c2ccc3c(c2)OCO3)on1)N1CCN(c2cc(F)ccc2Cl)CC1 [Compound 299, [5-(1,3-benzodioxol-5-yl)isoxazol-3-yl]-[4-(2-chloro-5-fluoro-phenyl)piperazin-1-yl]methanone]"
< 4.35,< 4.35,O=C(Nc1cnn(CCc2ccccc2)c1)c1cc(-c2ccco2)on1 [Compound 24]
< 4.35,< 4.35,N#Cc1ccc(Cn2cc(NC(=O)c3cc(-c4ccccc4)on3)cn2)nc1 [Compound 63]
7.18,6.00,"CCc1cc(C(=O)Nc2cnn(Cc3cccc(F)c3)c2)no1 [Compound 104, 5-ethyl-N-(1-(3-fluorobenzyl)-1H-pyrazol-4-yl)isoxazole-3-carboxamide]"
< 4.35,< 4.35,Cc1c(NC(=O)c2cc(-c3ccco3)on2)cnn1Cc1ccc(Cl)c(Cl)c1 [Compound 21]
< 4.35,< 4.35,O=C(c1cc(-c2ccc3c(c2)OCO3)on1)N1CCC1c1ccccc1Cl (stereo not drawn) [Compound 219]
< 4.35,< 4.35,O=C(NC1CCN(Cc2ccccc2)C1)c1cc(-c2ccco2)on1 (stereo not drawn) [Compound 337]

# — patent US10919885B2, “Compounds and uses thereof” (Yumanity Therapeutics, Inc., priority 2018, dated 2021)
